Results from publication PMC7884259 (Journal of medicinal chemistry, 2020).
Residue numbers refer to the chain shown, from its start. Where two headings read alike, the source gives them in different places. Where no end group is shown, it is not given here.

Legend:
ATAD2 bromodomain [1] = conditions: cited from earlier work
ATAD2B bromodomain = target: T1, ATAD2B bromodomain (Homo sapiens, UniProt Q9ULI0); experiment: ITC binding to the wild-type ATAD2B bromodomain
T1 sequence (Q9ULI0 953-1085): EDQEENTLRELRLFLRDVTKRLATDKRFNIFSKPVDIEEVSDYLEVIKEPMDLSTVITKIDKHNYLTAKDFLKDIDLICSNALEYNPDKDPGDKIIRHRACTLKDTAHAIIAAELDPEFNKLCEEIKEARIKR

ATAD2 bromodomain [2] = conditions: time-resolved fluorescence energy transfer; cited from earlier work
ATAD2B bromodomain Y995A = target: T2, ATAD2B bromodomain Y995A (Homo sapiens, UniProt Q9ULI0, Y995A); experiment: ITC binding to the ATAD2B bromodomain mutant Y995A; conditions: ITC at 5 °C, 20 mM NaH2PO4 pH 7.0, 150 mM NaCl; no binding in duplicate
T2 sequence (Q9ULI0 953-1085 Y995A): T1 sequence (Q9ULI0 953-1085) with Y43A

[3] = target: T3, ATAD2B bromodomain Y1037A (Homo sapiens, UniProt Q9ULI0, Y1037A); experiment: ITC binding to the ATAD2B bromodomain mutant Y1037A; conditions: ITC at 5 °C, 20 mM NaH2PO4 pH 7.0, 150 mM NaCl; no binding in duplicate
T3 sequence (Q9ULI0 953-1085 Y1037A): T1 sequence (Q9ULI0 953-1085) with Y85A

[4] = target: T4, ATAD2Bshort bromodomain (lacks residues 988–992, VDIEE) (Homo sapiens, UniProt Q9ULI0, DEL988-992); experiment: ITC binding to the ATAD2Bshort splice variant bromodomain; conditions: ITC at 5 °C, 20 mM NaH2PO4 pH 7.0, 150 mM NaCl; no binding in duplicate
T4 sequence (Q9ULI0 953-1080 isoform Q9ULI0-2): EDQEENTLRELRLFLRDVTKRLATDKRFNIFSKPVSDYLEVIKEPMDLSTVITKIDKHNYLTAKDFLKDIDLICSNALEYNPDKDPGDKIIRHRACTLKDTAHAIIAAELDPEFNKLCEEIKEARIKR

Compound | Dissociation constant, Y995A ATAD2B bromodomain (ATAD2B bromodomain Y995A) | Dissociation constant, Y1037A ATAD2B bromodomain [3] | Dissociation constant, ATAD2Bshort bromodomain [4] | other results
SGRGKGGK(Ac)GL-NH2 [H4K8ac (res 1–10)] | – | – | – | ATAD2 reported KDs (no KD available, interaction only) (ATAD2 bromodomain [1]; qualitative): NA, interaction shown[16]
LGK(Ac)GGAK(Ac)RHRK-NH2 [H4K12acK16ac (res 10–20)] | – | – | – | Kd (ATAD2B bromodomain): 214 ± 7 µM
RKSTGG(Kac)APRKQ [H3K14ac (res 8–19)] | – | – | – | ATAD2 reported KDs (ATAD2 bromodomain [1]; result is for the H3K14ac res 1–21 peptide): no binding (res 1–21)[14]
H4K5acK12ac (1–25): diacetylated histone H4 residues 1–25 peptide of the cited TR-FRET assay | – | – | – | recognition by the ATAD2 bromodomain in TR-FRET (ATAD2 bromodomain [2]): recognizes
CC(=O)NCCCC[C@H](NC(=O)CNC(=O)[C@H](CC(C)C)NC(=O)CNC(=O)[C@H](CCCCN)NC(=O)CNC(=O)CNC(=O)[C@H](CCCCN)NC(=O)CN)C(=O)NCC(=O)NCC(=O)N[C@@H](C)C(=O)N[C@@H](CCCCN)C(=O)N[C@@H](CCCNC(=N)N)C(N)=O [H4K12ac (res 4–17)] | no binding | no binding | no binding | Kd (ATAD2B bromodomain): 50.5 ± 5.8 µM; Kd (ATAD2 bromodomain [1]; read-out: ATAD2 reported KDs, value is for the H4K12ac res 1–25 peptide): 2.5 µM
8-(((3R,4R)-3-((1,1-dioxidotetrahydro-2H-thiopyran-4-yl)-methoxy)-piperidin-4-yl)amino)-3-methyl-5-(5-methylpyridin-3-yl)-1,7-naphthyridin-2(1H)-one [compound 38, reference compound] | – | – | no binding | Kd (ATAD2 bromodomain [1]; read-out: ATAD2 reported KDs (binding affinity)): 0.09 µM
H4K5acK8acK12acK16ac (1–25): tetra-acetylated histone H4 residues 1–25 peptide of the cited TR-FRET assay | – | – | – | recognition by the ATAD2 bromodomain in TR-FRET (ATAD2 bromodomain [2]): recognizes
SGRGK(Ac)QGGKARA-NH2 [H2AK5ac (res 1–12)] | no binding | no binding | no binding | –
GKGGKGLGKGGAKRHRK [H4 unmodified (res 4–17)] | no binding | no binding | no binding | –
SGRGK(Ac)GGKGL-NH2 [H4K5ac (res 1–10)] | no binding | no binding | no binding | Kd (ATAD2 bromodomain [1]; read-out: ATAD2 reported KDs, value is for the H4K5ac res 1–20 peptide): 22 µM
SGRGK(Ac)GGK(Ac)GL-NH2 [H4K5acK8ac (res 1–10)] | no binding | no binding | no binding | –
